Data: ChEMBL document CHEMBL1201862, “PubChem BioAssay data set” (2004)
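Compound exposure: 48 hours, 5 concentrations, 96-well plates. At the GI50, growth is halved.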 The source made the active and inactive calls. Cut-off read from the data, not from the text of the source: active = GI50 up to about 1.1 µM and inactive = higher.

Assays:
Test in all cases: NCI tumour cell line growth inhibition, 48 h
A498 = system: A498
CCRF-CEM = system: CCRF-CEM
COLO 205 = system: COLO 205
HCT-15 = system: HCT-15
HL-60 = system: HL-60
HOP-92 = system: HOP-92
KM12 = system: KM12
M14 = system: M14
Malme-3M = system: Malme-3M
PC-3 = system: PC-3
SF-268 = system: SF-268
SF-539 = system: SF-539
SK-MEL-28 = system: SK-MEL-28
SK-MEL-5 = system: SK-MEL-5
SK-OV-3 = system: SK-OV-3
SN12C = system: SN12C
T47D = system: T47D
TK-10 = system: TK-10
U-251 = system: U-251
UACC-257 = system: UACC-257

Compound	GI50 (A498)	GI50 (CCRF-CEM)	GI50 (COLO 205)	GI50 (HCT-15) [nM]	GI50 (HL-60)	GI50 (HOP-92)	GI50 (KM12)	GI50 (M14)	GI50 (Malme-3M)	GI50 (PC-3)	GI50 (SF-268)	GI50 (SF-539)	GI50 (SK-MEL-28)	GI50 (SK-MEL-5)	GI50 (SK-OV-3)	GI50 (SN12C)	GI50 (T47D)	GI50 (TK-10)	GI50 (U-251)	GI50 (UACC-257)
CCN(CC)CCN1CCN=c2c3cc(OC)ccc3n3cnc4ccc1c2c43	746 nM (active)	218 nM (active)	362 nM (active)	211	430 nM (active)	1120 nM (inactive)	367 nM (active)	719 nM (active)	1220 nM (inactive)	391 nM (active)	466 nM (active)	323 nM (active)	1500 nM (inactive)	1400 nM (inactive)	1600 nM (inactive)	429 nM (active)	5520 nM (inactive)	1070 nM (active)	789 nM (active)	1290 nM (inactive)
CC1C(O)Oc2cc3c(cc2C1c1ccccc1O)OCO3 (stereo not given)	29600 nM (inactive)	16700 nM (inactive)	16200 nM (inactive)	33100	17900 nM (inactive)	15200 nM (inactive)	32100 nM (inactive)	30500 nM (inactive)	25300 nM (inactive)	19500 nM (inactive)	36100 nM (inactive)	27900 nM (inactive)	25800 nM (inactive)	33300 nM (inactive)	39900 nM (inactive)	39200 nM (inactive)	30400 nM (inactive)	27400 nM (inactive)	37800 nM (inactive)	30100 nM (inactive)
CC(NC(=O)c1ccccc1)(C(=O)O)C(=O)O	> 100000 nM (inactive)	> 100000 nM (inactive)	> 100000 nM (inactive)	> 100000	> 100000 nM (inactive)	83000 nM (inactive)	> 100000 nM (inactive)	> 100000 nM (inactive)	> 100000 nM (inactive)	> 100000 nM (inactive)	> 100000 nM (inactive)	> 100000 nM (inactive)	> 100000 nM (inactive)	> 100000 nM (inactive)	> 100000 nM (inactive)	> 100000 nM (inactive)	> 100000 nM (inactive)	> 100000 nM (inactive)	> 100000 nM (inactive)	> 100000 nM (inactive)
CN1CCN(c2ccc([N+](=O)[O-])c3no[n+]([O-])c23)CC1	1040 nM (active)	14.3 nM (active)	656 nM (active)	489	36.6 nM (active)	526 nM (active)	98 nM (active)	153 nM (active)	160 nM (active)	557 nM (active)	37.5 nM (active)	65.2 nM (active)	1980 nM (inactive)	743 nM (active)	148 nM (active)	106 nM (active)	66.1 nM (active)	792 nM (active)	97 nM (active)	1190 nM (inactive)
CCCCCCCCCCCCCC(=O)CBr	17400 nM (inactive)	467 nM (active)	14900 nM (inactive)	11100	1030 nM (active)	2360 nM (inactive)	12100 nM (inactive)	10800 nM (inactive)	9060 nM (inactive)	3620 nM (inactive)	12200 nM (inactive)	13200 nM (inactive)	16500 nM (inactive)	12100 nM (inactive)	24000 nM (inactive)	16600 nM (inactive)	3940 nM (inactive)	15800 nM (inactive)	14600 nM (inactive)	13200 nM (inactive)
Cc1nc2c(nc1C)-c1c(c3c(n1C)C(=O)CCC3)C(=O)C2=O	984 nM (active)	219 nM (active)	1750 nM (inactive)	334	232 nM (active)	1290 nM (inactive)	1450 nM (inactive)	338 nM (active)	297 nM (active)	1170 nM (inactive)	295 nM (active)	1220 nM (inactive)	622 nM (active)	406 nM (active)	1270 nM (inactive)	216 nM (active)	69.7 nM (active)	2220 nM (inactive)	213 nM (active)	1400 nM (inactive)
